Experimental data from US7473772B2, “Chimeric GB virus B (GBV-B)” (The Board of Regents of The University of Texas System, priority 2003, dated 2009).

Tested on: tamarin without a prior history of GBV-B infection
Assay: Intrahepatic inoculation of synthetic GBV-B RNA into a tamarin; serum GBV-B RNA by real-time quantitative RT-PCR (TaqMan)
Format: in vivo, Saguinus oedipus
Conditions: about 60 μg RNA intrahepatic
Excerpt: Plasmid DNA containing the GBV-B cDNA was purified by isopycnic centrifugation on a CsCl gradient and isolated by ethanol precipitation. The plasmid DNA was linearized at the 3′ terminus of the cDNA insert by digestion with Xho I. Two μg of the linearized DNA was used as template in an in vitro transcription reaction using the Ambion T7 MEGAscript Kit according to the manufacturer's instructions. The integrity of the resultant synthetic RNA product was confirmed by nondenaturing agarose gel electrophoresis.
Approximately 60 μg of RNA transcribed from the GBV-B cDNA clone was diluted in phosphate buffered saline and injected under direct visualization at laparotomy into the liver of a healthy tamarin without a prior history of GBV-B infection (Saguinus oedipus). Serum samples were collected from the animal weekly beginning at 2 weeks post-inoculation and tested for the presence of GBV-B RNA by real-time quantitative RT-PCR (TaqMan® assay).

## GBV-B cDNA clone: synthetic RNA transcribed from the full-length 9.4 kb GBV-B cDNA clone containing the novel 3′ terminal sequence
Week 2 postinoculation
  GBV-B RNA in serum: 8.3 × 10^3 Genome equivalents/ml
Week 3 postinoculation
  GBV-B RNA in serum: 6.6 × 10^5 Genome equivalents/ml
Week 4 postinoculation
  GBV-B RNA in serum: 4.6 × 10^8 Genome equivalents/ml
